Values of other authors as cited in patent US10392669B2, “Methods and systems for determination of an effective therapeutic regimen and drug discovery” (DNA-SEQ, INC., priority 2014, dated 2019).
Entries after “also recorded” stand apart in the source; their conditions may differ.

Key:
[1] = tested on: catalytic cores of kinases; settings: cancer patients, bracketed literature reference; for Activating Mutations: known activating mutations within the kinase catalytic core listed for the drug; for Resistant Mutations: known resistance mutations within the kinase catalytic core listed for the drug
kinase DFG motif = settings: crystal structure library
ERBB2 T798I = ERBB2 T798I (Homo sapiens, UniProt P04626, T798I); settings: Gene ERBB2, Mutation T798I; full finding: Not reported to be in a before/after study, but does cause drug resistance

Structure (SMILES) | Activating Mutations [1] | Resistant Mutations [1] | other results
C=CC(=O)Nc1cc(Nc2nccc(-c3cn(C)c4ccccc34)n2)c(OC)cc1N(C)CCN(C)C [Osimertinib] | EGFR: T790M [20] | – | –
COc1cc2ncnc(Nc3ccc(F)c(Cl)c3)c2cc1OCCCN1CCOCC1 [Gefitinib] | EGFR: L858R, L861Q [14] | – | –
C#Cc1cccc(Nc2ncnc3cc(OCCOC)c(OCCOC)cc23)c1 [Erlotinib] | EGFR: L858R [12] | – | –
Cc1cn(-c2cc(NC(=O)c3ccc(C)c(Nc4nccc(-c5cccnc5)n4)c3)cc(C(F)(F)F)c2)cn1 [Nilotinib] | BCR/ABL: F317L [3] | – | DFG conformation bound (kinase DFG motif): binds the DFG out conformation
CS(=O)(=O)CCNCc1ccc(-c2ccc3ncnc(Nc4ccc(OCc5cccc(F)c5)c(Cl)c4)c3c2)o1 [Lapatinib] | – | HER2: L755S [18] | Finding (ERBB2 T798I): Not reported to be in a before/after
CNC(=O)c1cc(Oc2ccc(NC(=O)Nc3ccc(Cl)c(C(F)(F)F)c3)cc2)ccn1 [Sorafenib] | PDGFRA: T674I [26] | FIP1LI-PDGFRA: D842V | –
COc1cc2nccc(Oc3ccc(NC(=O)NC4CC4)c(Cl)c3)c2cc1C(N)=O [Lenvatinib] | RET: C634W, M918T [19] | – | –
Cc1ccc(NC(=O)c2ccc(CN3CCN(C)CC3)cc2)cc1Nc1nccc(-c2cccnc2)n1 [Imatinib] | – | KIT: T670I; also recorded: ABL: T315I [17] | –
O=C(c1ccc(F)c(F)c1Nc1ccc(I)cc1F)N1CC(O)([C@@H]2CCCCN2)C1 [Cobimetinib] | Braf: V600 mutation [9] | – | –
C[C@@H](Oc1cc(-c2cnn(C3CCNCC3)c2)cnc1N)c1c(Cl)ccc(F)c1Cl [Crizotinib] | ALK: I117IN, R1275Q [10] | – | –
